Results from the NIST ThermoML archive (doi:10.1021/je049960h).
Numbers after ± are expanded uncertainties.

Conditions: 101.33 kPa, Liquid; for viscosity: Capillary tube (Ostwald / Ubbelohde) method; for mass density: Pycnometric method; for thermal conductivity: Hot wire method

## CC(O)CO (stereo not drawn) [1,2-propanediol]
297.25 K
  viscosity: 46.4 ± 1 mPa·s
298.85 K
  mass density: 1033 ± 2 kg/m3
299.1 K
  thermal conductivity: 0.196 ± 0.004 W/m/K
302.55 K
  viscosity: 34 ± 0.7 mPa·s
313.6 K
  thermal conductivity: 0.195 ± 0.004 W/m/K
317.1 K
  viscosity: 16.4 ± 0.4 mPa·s
318.05 K
  mass density: 1018 ± 2 kg/m3
332.3 K
  viscosity: 8.75 ± 0.18 mPa·s
332.9 K
  thermal conductivity: 0.195 ± 0.004 W/m/K
339 K
  mass density: 1003 ± 2 kg/m3
347.4 K
  viscosity: 5.26 ± 0.11 mPa·s
352.3 K
  thermal conductivity: 0.194 ± 0.004 W/m/K
359.4 K
  mass density: 986.1 ± 2 kg/m3
362.05 K
  viscosity: 3.42 ± 0.07 mPa·s
371.6 K
  thermal conductivity: 0.193 ± 0.004 W/m/K
376.45 K
  viscosity: 2.34 ± 0.05 mPa·s
380.95 K
  mass density: 967.6 ± 2 kg/m3
391.05 K
  viscosity: 1.67 ± 0.04 mPa·s
391.1 K
  thermal conductivity: 0.192 ± 0.004 W/m/K
399.6 K
  mass density: 951.2 ± 2 kg/m3
406.05 K
  viscosity: 1.27 ± 0.03 mPa·s
411.4 K
  thermal conductivity: 0.19 ± 0.004 W/m/K
420.2 K
  mass density: 931.7 ± 1.9 kg/m3
420.85 K
  viscosity: 0.982 ± 0.021 mPa·s
430.4 K
  thermal conductivity: 0.187 ± 0.004 W/m/K
440.35 K
  mass density: 912.2 ± 1.9 kg/m3
450.8 K
  thermal conductivity: 0.183 ± 0.004 W/m/K

## CC(O)COC(C)COC(C)CO (stereo not drawn) [2-[2-(2-hydroxypropoxy)propoxy]-1-propanol]
294.82 K
  viscosity: 69.4 ± 1.8 mPa·s
295.01 K
  mass density: 1017 ± 3 kg/m3
298.1 K
  thermal conductivity: 0.152 ± 0.003 W/m/K
313.05 K
  viscosity: 23.6 ± 0.6 mPa·s
  mass density: 1003 ± 3 kg/m3
326.1 K
  thermal conductivity: 0.152 ± 0.003 W/m/K
333.1 K
  viscosity: 9.64 ± 0.25 mPa·s
  mass density: 986.4 ± 2.5 kg/m3
351.1 K
  thermal conductivity: 0.15 ± 0.003 W/m/K
353.1 K
  viscosity: 4.85 ± 0.12 mPa·s
  mass density: 969.9 ± 2.5 kg/m3
372.15 K
  viscosity: 2.91 ± 0.07 mPa·s
  mass density: 953.5 ± 2.4 kg/m3
376.2 K
  thermal conductivity: 0.148 ± 0.003 W/m/K
391.5 K
  viscosity: 1.91 ± 0.05 mPa·s
  mass density: 936.4 ± 2.4 kg/m3
399.4 K
  thermal conductivity: 0.145 ± 0.003 W/m/K
411.35 K
  viscosity: 1.33 ± 0.03 mPa·s
  mass density: 918.7 ± 2.4 kg/m3
424.9 K
  thermal conductivity: 0.14 ± 0.003 W/m/K
428.2 K
  viscosity: 1.03 ± 0.03 mPa·s
  mass density: 903.3 ± 2.3 kg/m3
449.6 K
  thermal conductivity: 0.135 ± 0.003 W/m/K

## OCCCOCCCO [4-oxa-1,7-heptanediol]
297.42 K
  viscosity: 81.5 ± 1.8 mPa·s
297.45 K
  mass density: 1020 ± 2 kg/m3
298.2 K
  thermal conductivity: 0.156 ± 0.003 W/m/K
309.8 K
  thermal conductivity: 0.157 ± 0.003 W/m/K
313.05 K
  mass density: 1008 ± 2 kg/m3
313.07 K
  viscosity: 29.8 ± 0.7 mPa·s
316.9 K
  thermal conductivity: 0.156 ± 0.003 W/m/K
333.1 K
  viscosity: 11.1 ± 0.2 mPa·s
  mass density: 992.4 ± 2.1 kg/m3
347.4 K
  thermal conductivity: 0.156 ± 0.003 W/m/K
353.1 K
  viscosity: 5.24 ± 0.11 mPa·s
  mass density: 976.1 ± 2 kg/m3
363 K
  thermal conductivity: 0.156 ± 0.003 W/m/K
372.25 K
  viscosity: 3 ± 0.06 mPa·s
  mass density: 960.3 ± 2 kg/m3
377.6 K
  thermal conductivity: 0.155 ± 0.003 W/m/K
391.45 K
  viscosity: 1.9 ± 0.04 mPa·s
  mass density: 943.1 ± 2 kg/m3
391.6 K
  thermal conductivity: 0.154 ± 0.003 W/m/K
405.7 K
  thermal conductivity: 0.153 ± 0.003 W/m/K
408.35 K
  viscosity: 1.36 ± 0.03 mPa·s
  mass density: 928.1 ± 2 kg/m3
420.3 K
  viscosity: 1.1 ± 0.02 mPa·s
  mass density: 916.9 ± 2 kg/m3
420.6 K
  thermal conductivity: 0.151 ± 0.003 W/m/K
428.3 K
  viscosity: 0.97 ± 0.021 mPa·s
  mass density: 909.6 ± 1.9 kg/m3
435.1 K
  thermal conductivity: 0.149 ± 0.003 W/m/K
